What was measured:
[1] = Solubility test in distilled water; type: physicochemical; conditions: for Solubility in water (class in words) / Solubility (g/ml water): distilled water; for Solubility (g/ml water): 100 mg sample
Description: Solubility was determined by placing 100 mg of sample material in a 50 ml glass beaker, adding 10 μL portions of distilled water and agitating until dissolved.

[2] = Hygroscopicity / water content at room conditions (TGA, FIG. 6); type: physicochemical; conditions: for Hygroscopicity: room conditions, GBPE-Ca compared to GBPE sodium salt
Description: Thermogravimetric Analysis (“TGA”) • TGA data obtained from TGA/DSC 1 of Mettler-Toledo or TA Instruments TGA 2959 • Heating range: 25-200 C; heating rate: 10° C./min, • Nitrogen flow 40 ml/min • Mass weight about 10 mg.

[3] = Thermogravimetric analysis (TGA): temperature at which thermal decomposition starts; type: physicochemical; conditions: 25-200 C, 10° C./min, nitrogen
[4] = long period of storing

CC(OC(=O)NCC1(CC(=O)O)CCCCC1)OC(=O)C(C)C (stereo not drawn) [GBPE amorphous, 1-{[(α-isobutanoyloxyethoxy)carbonyl]-aminomethyl}-1-cyclohexane acetic acid, reference compound]
Solubility in water (class in words) [1]: insoluble

CC(OC(=O)NCC1(CC(=O)[O-])CCCCC1)OC(=O)C(C)C.[Na+] (stereo not shown) [GBPE sodium salt, reference compound]
Hygroscopicity [2]: extremely hydrophilic

CC(OC(=O)NCC1(CC(=O)[O-])CCCCC1)OC(=O)C(C)C.CC(OC(=O)NCC1(CC(=O)[O-])CCCCC1)OC(=O)C(C)C.[Ba+2] (stereo not shown) [GBPE-Ba salt]
Solubility in water (class in words) [1]: freely soluble (a compound having a solubility of about 0.1 to about 1 g/ml)
Solubility (g/ml water) [1]: 0.125 g/mL
Temperature at which decomposition starts [3]: 60 °C
Water content when kept in room conditions ([2]; FIG. 6): contained no water
Hygroscopicity [2]: non-hygroscopic
Stability of form during storage [4]: stability over a long period of time

CC(OC(=O)NCC1(CC(=O)[O-])CCCCC1)OC(=O)C(C)C.CC(OC(=O)NCC1(CC(=O)[O-])CCCCC1)OC(=O)C(C)C.[Ca+2] (stereo not shown) [GBPE-Ca salt]
Solubility compared to GBPE sodium salt [1]: less soluble
Solubility in water (class in words) [1]: sparingly soluble (a compound having a solubility of about 0.01 g/ml to about 0.03 g/ml)
Solubility (g/ml water) [1]: 0.016 g/mL
Temperature at which decomposition starts [3]: 70 °C
Hygroscopicity [2]: less hygroscopic

CC(OC(=O)NCC1(CC(=O)[O-])CCCCC1)OC(=O)C(C)C.CC(OC(=O)NCC1(CC(=O)[O-])CCCCC1)OC(=O)C(C)C.[Mg+2] (stereo not shown) [GBPE-Mg salt]
Solubility in water (class in words) [1]: sparingly soluble (a compound having a solubility of about 0.01 g/ml to about 0.03 g/ml)
Solubility (g/ml water) [1]: 0.020 g/mL
Temperature at which decomposition starts [3]: 70 °C

From patent US20100004485A1, “GABAPENTIN ENACARBIL SALTS AND PROCESSES FOR THEIR PREPARATION” (priority 2008, published 2010)
